Values quoted from earlier work in paper PMC10318822, “Phase 1 dose-escalation study to evaluate the safety, tolerability, pharmacokinetics, and anti-tumor activity of FCN-159 in adults with neurofibromatosis type 1-related unresectable plexiform neurofibromas” (BMC Medicine, 2023).
Where two headings read alike, the source gives them in different places.

Key:
NF1-related PN [1] = tested on: NF1-related PN; design: method as in PMID 33507822; details: adult patients with NF1 and progressive PN, 2 mg/m^2 twice daily, n = 8/19; cited from earlier work
patients [2] = tested on: patients; design: method as in PMID 20215549; details: cited from earlier work
[3] = cited from earlier work; for RP2D: twice daily
NF1-related PN [4] = details: cited from earlier work
patients [5] = details: in vivo; cited from earlier work

SMILES | Response rate (NF1-related PN [1]) [%] | Blurred vision (patients [2]) [%] | Patients with rash (patients [2]) [%] | Visual disturbance (patients [2]) [%] | Terminal half-life [3] [h] | Terminal half-life, average [3] [h] | RP2D [3] [mg/m^2] | Partial responses (PRs) (NF1-related PN [4]; interim results, phase II study in adults (NCT02407405), n = 16/23) [%] | Response rate (NF1-related PN [4]; pediatric patients with NF1-related PN) | Partial responses (PRs) (NF1-related PN [4]; phase I study, children, 20–30 mg/m^2 twice daily, n = 17/24) [%] | Partial responses (PRs) (NF1-related PN [4]; phase II trial, n = 34/50) [%] | Patients reporting AEs of CTCAE grade 3 or above (patients [5]) | Patients with acneiform dermatitis (patients [5]) [%] | Visual function AEs (patients [5]) [%] | Dose proportionality of plasma concentration increase [3] | Time to Cmax ([3]; human, in vivo) [h]
O=C(NOC[C@H](O)CO)c1ccc(F)c(F)c1Nc1ccc(I)cc1F [mirdametinib] | 42 | 10.6 | 78.8 | 13.6 | 4.6 to 18.0 | 7.8 | 2 | – | – | – | – | – | – | – | – | –
Cn1cnc2c(F)c(Nc3ccc(Br)cc3Cl)c(C(=O)NOCCO)cc21 [selumetinib] | – | – | – | – | 6.0 to 6.9 | – | 25 | 69 | 40–70% | 71 | 68 | up to 71.4% | 62.5 | 17.9 | less than dose-proportional | 1.00 to 1.10
